Test results as given in ChEMBL document CHEMBL5113477, “Membrane acting Povarov-Doebner derived compounds potently disperse preformed multidrug resistant Gram-positive bacterial biofilms” (Eur J Med Chem, 2022).
Converted amounts (≈) assume the structure as drawn. The source made the active and inactive calls. The rule behind the calls is not given here.

Experiments:
[1] = system: Staphylococcus aureus; experiment: Inhibition of cell wall synthesis in Staphylococcus aureus ATCC 25923 at 0.25 to 8 ug/ml by [glucosamine-6-3H]-N-acetyl-D-glucosamine incorporation assay; format: functional, organism-based; conditions: dose 0.25-8 µg/ml
[2] = system: Enterococcus faecium; experiment: Synergistic antibiofilm activity against vancomycin-resistant Enterococcus faecium ATCC 700221 in TSB broth assessed as dispersal of glucose-induced biofilm preincubated with glucose for 48 hrs followed by compound addition and further incubated for 24 hrs in presence of Bithionol by crystal violet staining based checkerboard assay; format: functional
[3] = system: Staphylococcus aureus; experiment: Bactericidal activity against persister methicillin-resistant Staphylococcus aureus ATCC 33592 at 1 times MIC incubated for 8 hrs by time kill assay; format: functional
[4] = system: Enterococcus faecalis; experiment: Synergistic antibiofilm activity against vancomycin-resistant Enterococcus faecalis ATCC 51575 in TSB broth assessed as dispersal of glucose-induced biofilm by measuring fractional inhibitory concentration index preincubated with glucose for 48 hrs followed by compound addition and further incubated for 24 hrs in presence of Bithionol by crystal violet staining based checkerboard assay; format: functional
[5] = system: Cell membrane; experiment: Induction of membrane permeabilization in Staphylococcus aureus ATCC 25923 measured every 3 mins for 180 mins by sytox green dye based flow cytometry analysis; format: subcellular; conditions: dose 0.5-4 µg/ml, DDE = dose-dependent effect
[6] = system: Staphylococcus aureus; experiment: Bactericidal activity against exponential phase of methicillin-resistant Staphylococcus aureus USA 300 at 1 to 4 times MIC incubated for 2 to 8 hrs by time kill assay; format: functional, organism-based; conditions: time 2-8 hrs
[7] = system: Enterococcus faecalis; experiment: Synergistic antibiofilm activity against vancomycin-resistant Enterococcus faecalis ATCC 51575 in TSB broth assessed as dispersal of glucose-induced biofilm preincubated with glucose for 48 hrs followed by compound addition and further incubated for 24 hrs in presence of Bithionol by crystal violet staining based checkerboard assay; format: functional
[8] = system: Enterococcus faecium; experiment: Synergistic antibiofilm activity against vancomycin-resistant Enterococcus faecium ATCC 700221 in TSB broth assessed as dispersal of glucose-induced biofilm by measuring Nitroxoline MBEC preincubated with glucose for 48 hrs followed by compound addition and measured after 24 hrs by crystal violet staining based checkerboard assay; format: functional
[9] = system: Staphylococcus aureus; experiment: Antibacterial activity against methicillin-resistant Staphylococcus aureus USA 300 (ARLG 1665) assessed as reduction in visible bacterial growth incubated for 18 to 20 hrs by CLSI based broth microdilution analysis; format: functional; conditions: time 18-20 hrs
[10] = system: Enterococcus faecalis; experiment: Antibiofilm activity against vancomycin-resistant Enterococcus faecalis ATCC 51575 in TSB broth assessed as dispersal of glucose-induced biofilm preincubated with glucose for 48 hrs followed by compound addition and measured after 24 hrs by crystal violet staining based analysis; format: functional
[11] = system: Staphylococcus aureus; experiment: Antibacterial activity against methicillin-resistant Staphylococcus aureus USA 300 (ARLG 1663) assessed as reduction in visible bacterial growth incubated for 18 to 20 hrs by CLSI based broth microdilution analysis; format: functional; conditions: time 18-20 hrs
[12] = system: Staphylococcus aureus; experiment: Synergistic antibiofilm activity against methicillin-resistant Staphylococcus aureus USA 300 in TSB broth assessed as dispersal of glucose-induced biofilm at 1 ug/ml preincubated with glucose for 48 hrs followed by compound addition and further incubated for 24 hrs in presence of Nitroxoline by crystal violet staining based assay; format: functional; conditions: dose 1 µg/ml
[13] = system: Staphylococcus aureus; experiment: Antibiofilm activity against methicillin-resistant Staphylococcus aureus USA 300 in TSB broth assessed as dispersal of glucose-induced biofilm preincubated with glucose for 48 hrs followed by compound addition and measured after 24 hrs by crystal violet staining based analysis; format: functional
[14] = system: Staphylococcus aureus; experiment: Antibacterial activity against methicillin-resistant Staphylococcus aureus ATCC 33592 assessed as reduction in visible bacterial growth incubated for 18 to 20 hrs by CLSI based broth microdilution analysis; format: functional; conditions: time 18-20 hrs
[15] = system: Staphylococcus aureus; experiment: Inhibition of protein synthesis in Staphylococcus aureus ATCC 25923 at 0.25 to 8 ug/ml by [3H]-I-leucine incorporation assay; format: functional; conditions: dose 0.25-8 µg/ml
[16] = system: Staphylococcus aureus; experiment: Synergistic antibiofilm activity against methicillin-resistant Staphylococcus aureus USA 300 in TSB broth assessed as dispersal of glucose-induced biofilm preincubated with glucose for 48 hrs followed by compound addition and further incubated for 24 hrs in presence of Bithionol by crystal violet staining based checkerboard assay; format: functional
[17] = system: Enterococcus faecium; experiment: Synergistic antibiofilm activity against vancomycin-resistant Enterococcus faecium ATCC 700221 in TSB broth assessed as dispersal of glucose-induced biofilm at 2 ug/ml preincubated with glucose for 48 hrs followed by compound addition and further incubated for 24 hrs in presence of 0.5 ug/ml Bithionol and AgNO3 by crystal violet staining based analysis; format: functional; conditions: dose 2 µg/ml
[18] = system: Staphylococcus aureus; experiment: Synergistic antibiofilm activity against methicillin-resistant Staphylococcus aureus USA 300 in TSB broth assessed as dispersal of glucose-induced biofilm by measuring fractional inhibitory concentration index preincubated with glucose for 48 hrs followed by compound addition and further incubated for 24 hrs in presence of Nitroxoline by crystal violet staining based checkerboard assay; format: functional
[19] = system: Enterococcus faecalis; experiment: Synergistic antibiofilm activity against vancomycin-resistant Enterococcus faecalis ATCC 51575 in TSB broth assessed as dispersal of glucose-induced biofilm by measuring Bithionol MBEC preincubated with glucose for 48 hrs followed by compound addition and measured after 24 hrs by crystal violet staining based checkerboard assay; format: functional
[20] = system: Enterococcus faecium; experiment: Synergistic antibiofilm activity against vancomycin-resistant Enterococcus faecium ATCC 700221 in TSB broth assessed as dispersal of glucose-induced biofilm by measuring fractional inhibitory concentration index preincubated with glucose for 48 hrs followed by compound addition and further incubated for 24 hrs in presence of Bithionol by crystal violet staining based checkerboard assay; format: functional
[21] = system: Staphylococcus aureus; experiment: Antibacterial activity against methicillin-resistant Staphylococcus aureus USA 300 assessed as reduction in visible bacterial growth incubated for 18 to 20 hrs by CLSI based broth microdilution analysis; format: functional; conditions: time 18-20 hrs
[22] = system: Staphylococcus aureus; experiment: Synergistic antibiofilm activity against methicillin-resistant Staphylococcus aureus USA 300 in TSB broth assessed as dispersal of glucose-induced biofilm at 2 ug/ml preincubated with glucose for 48 hrs followed by compound addition and further incubated for 24 hrs in presence of 0.5 ug/ml Bithionol and AgNO3 by crystal violet staining based analysis; format: functional; conditions: dose 2 µg/ml
[23] = system: Enterococcus faecium; experiment: Synergistic antibiofilm activity against vancomycin-resistant Enterococcus faecium ATCC 700221 in TSB broth assessed as dispersal of glucose-induced biofilm preincubated with glucose for 48 hrs followed by compound addition and further incubated for 24 hrs in presence of Nitroxoline by crystal violet staining based checkerboard assay; format: functional
[24] = system: Enterococcus faecalis; experiment: Antibacterial activity against vancomycin-resistant Enterococcus faecalis ATCC 51575 assessed as reduction in visible bacterial growth incubated for 18 to 20 hrs by CLSI based broth microdilution analysis; format: functional; conditions: time 18-20 hrs
[25] = system: Staphylococcus aureus; experiment: Synergistic antibiofilm activity against methicillin-resistant Staphylococcus aureus USA 300 in TSB broth assessed as dispersal of glucose-induced biofilm at 1 ug/ml preincubated with glucose for 48 hrs followed by compound addition and further incubated for 24 hrs in presence of Nitroxoline by SEM analysis; format: functional, organism-based; conditions: dose 1.0 µg/ml
[26] = system: Staphylococcus aureus; experiment: Synergistic antibiofilm activity against methicillin-resistant Staphylococcus aureus USA 300 in TSB broth assessed as dispersal of glucose-induced biofilm by measuring Nitroxoline MBEC preincubated with glucose for 48 hrs followed by compound addition and measured after 24 hrs by crystal violet staining based checkerboard assay; format: functional

`Oc1ccc([C@@H]2Nc3ccc(S(F)(F)(F)(F)F)cc3[C@H]3[C@@H]4CC[C@@H](C4)[C@H]32)cc1` was tested, and the inhibition [1] was “Active”, the MBEC [2] was 1 µg/mL and the Activity [3] was 100%. For the same molecule, the “fractional inhibitory concentration index (FICI)” value [4] was 0.5, the Activity [5] was “Dde” and the Activity [6] was “Active”. For the same molecule, the MBEC [7] was 2 µg/mL, the MBEC [8] was 0.5 µg/mL and the MBC [9] was 2 µg/mL (≈ 4.79 µM). The MIC [9] was 1 µg/mL (≈ 2.4 µM), the MBEC [10] was 16 µg/mL and the MBC [11] was 2 µg/mL (≈ 4.79 µM). For the same molecule, the MIC [11] was 0.5 µg/mL (≈ 1.2 µM), the Activity [12] was >80% and the MBEC [13] was 32 µg/mL. For the same molecule, the MBC [14] was 1 µg/mL (≈ 2.4 µM), the MIC [14] was 2 µg/mL (≈ 4.79 µM) and the inhibition [15] was “Active”. For the same molecule, the MBEC [16] was 4 µg/mL, the Activity [17] was >70% and the “fractional inhibitory concentration index (FICI)” value [18] was 0.28. The MBEC [19] was 4 µg/mL, the “fractional inhibitory concentration index (FICI)” value [20] was 0.28 and the MBC [21] was 2 µg/mL (≈ 4.79 µM). The MIC [21] was 1 µg/mL (≈ 2.4 µM), the Activity [22] was >80% and the MBEC [23] was 4 µg/mL. The MBC [24] was 2 µg/mL (≈ 4.79 µM), the MIC [24] was 2 µg/mL (≈ 4.79 µM) and the Activity [25] was “Active”. For the same molecule, the MBEC [26] was 4 µg/mL.
